Experiments:
[1] = test system: human stomach cancer cells (MKN-45); test: Experiment 8: therapeutic effects and toxicity of Cupid-scFv antibody (24 h before)+^211At-psyche-BR in MKN-45 cancer-bearing mouse models; assay type: in vivo, mice (BALB/cSlc nu/nu); conditions: for general states and body weight: Day 5, urgent euthanasia
Procedure: The present experiment used human stomach cancer cells (MKN-45) expressing carcinoembryonic antigen (CEA). 9-week-old male immunodeficient mice (BALB/cSlc nu/nu) were used. MKN-45 cells (5×10^6/0.1 ml) were transplanted into the mice's subcutis on the right shoulder dorsal side to produce cancer-bearing mouse models. At the time point in which the tumor volume became a predetermined size (on Day 8 after the transplantation), the mice were divided into seven groups, which were for use in the evaluation of the therapeutic effects, and a biodistribution group (6 hours) of cancer-bearing mouse models having this tumor size. The Cupid-scFv antibody was administered 100 μmol/0.1 ml via the caudal vein of each mouse. Twenty-four hours after administration of the Cupid-scFv antibody, ^211At-psyche-BR was administered via the caudal vein of each mouse in an amount of 5.55 MBq, 3.70 MBq, 1.85 MBq, 1.11 MBq, or 0.37 MBq.
To a control group, a solvent for the ^211At-psyche-BR was administered (solvent group). A group to which only cupid was administered was defined as a Cupid group. The mice's general states were observed and recorded immediately after administration of the ^211At-psyche-BR and at 3 hours after the administration. Moreover, until Day 14, after administration of the ^211At-psyche-BR, observation of the general states and the measurement of the body weight was carried out every day. After Day 14 of the administration of the ^211At-psyche-BR, observation of the general states and the measurement of the body weight was carried out every other day. The tumor size was measured every other day after the treatment with the ^211At-psyche-BR. On Day 36, after the treatment with the ^211At-psyche-BR, observation of the general states, the measurement of the body weight, and the measurement of the tumor size were carried out, and the mice were then euthanized by collecting whole blood from the heart of each mouse under isoflurane anesthesia. Tumor tissues and major tissues/organs were excised from the mice, weighed, and immobilized with formalin.

[2] = test system: human stomach cancer cells (MKN-45); test: Experiment 9: pharmacokinetics (6 h) of Cupid-scFv antibody (24 h before)+^211At-psyche-BR in MKN-45 cancer-bearing mouse models; assay type: in vivo, mice (BALB/cSlc nu/nu); conditions: six hours after administration, tumor on Day 8 after transplantation
Procedure: The present experiment used human stomach cancer cells (MKN-45) expressing carcinoembryonic antigen (CEA). 9-week-old male immunodeficient mice (BALB/cSlc nu/nu) were used. MKN-45 cells (1×10^7/0.1 ml) were transplanted into the mice's subcutis on the right shoulder dorsal side to produce cancer-bearing mouse models. When the tumor volume became a predetermined size (on Day 8 after the transplantation), the Cupid-scFv antibody was administered 100 μmol/0.1 ml via the caudal vein of each mouse. Twenty-four hours after administration of the Cupid-scFv antibody, ^211At-psyche-BR (about 0.30 MBq/100 ml) was administered via the caudal vein of each mouse. […] After that, the weights of blood, plasma, urine, tumor, and normal tissues/organs were measured, and the radioactivity thereof was then measured using a γ counter. The amounts of the ^211At-psyche-BR (radioactivity) accumulated in the blood, plasma, urine, tumor, and normal tissues/organs were calculated. […] Regarding accumulation of the ^211At-psyche-BR in the thyroid gland, since the weight of the thyroid gland could not be precisely measured, it was shown that the rate (% ID) of the ^211At-psyche-BR accumulated in the thyroid gland in the administered ^211At-psyche-BR.

## N=C1N[C@H]2[C@H](CS[C@H]2CCCCNC(=O)CCCCCC(=O)Nc2cc(NC(=O)CCCCCC(=O)NCCCC[C@@H]3SC[C@@H]4NC(=N)N[C@@H]43)cc(C(=O)NCCOCCOCCNC(=O)c3cccc([211At])c3)c2)N1 [^211At-psyche-BR]
[1]; 0.37 MBq
  general states and body weight changes: almost the same levels as in the control group
[1]; 0.37 MBq, until Day 10
  tumor growth compared with the control group: tumor growth was suppressed
[1]; 1.11 MBq
  general states and body weight changes: almost the same levels as in the control group
[1]; 1.11 MBq, until Day 10
  tumor growth compared with the control group: tumor growth was suppressed
[1]; 1.85, 1.11 and 0.37 MBq, after Day 10
  tumor growth compared with the control group: the tumor growth was suppressed in an amount-dependent manner
[1]; 1.85 MBq, until Day 10
  tumor growth compared with the control group: tumor growth was suppressed
[1]; 3.70 MBq
  general states and body weight: general states and body weight reduction became severe
[1]; 5.55 MBq
  general states and body weight: general states and body weight reduction became severe
[2]
  Accumulation in the tumor: 31.0±3.4 % ID/g
